Assay results from PMC2939063, “In Vitro and In Vivo Studies of the Trypanocidal Properties of WRR-483 against Trypanosoma cruzi” (PLoS Neglected Tropical Diseases, 2010).
Entries after “also recorded” stand apart in the source; their conditions may differ.

Tests used:
[1] = test system: T. cruzi infection in BESM cells; parameters: method as in PMID 20547819; settings: read-out: EC50 against T. cruzi infection in BESM cells; cited from earlier work
tbcatB = target: T1, tbcatB (Trypanosoma brucei, UniProt Q6R7Z5); test: tbcatB enzyme assay; assay type: biochemical
T1 construct: made in house
T1 sequence (Q6R7Z5 23-340): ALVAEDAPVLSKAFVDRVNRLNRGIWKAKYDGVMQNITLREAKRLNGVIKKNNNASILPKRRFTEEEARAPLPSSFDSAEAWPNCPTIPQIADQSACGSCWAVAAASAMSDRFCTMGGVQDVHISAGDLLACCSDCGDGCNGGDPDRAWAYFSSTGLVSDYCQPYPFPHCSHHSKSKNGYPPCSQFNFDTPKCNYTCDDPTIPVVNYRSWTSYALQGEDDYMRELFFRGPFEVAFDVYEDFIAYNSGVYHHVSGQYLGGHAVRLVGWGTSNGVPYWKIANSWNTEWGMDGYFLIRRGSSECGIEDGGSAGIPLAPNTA
Description: (§1) Cruzain[27],[28], rhodesain [29], and tbcatB [30] were recombinantly expressed as described previously. TbcatB assays were performed as described previously.[31] Cruzain (2 nM) or rhodesain (3 nM) was incubated with 0.5 to 10 µM inhibitor concentration in 100 mM sodium acetate at pH 5.5, containing 5 mM DTT (buffer A) for 5 min at room temperature. Then buffer A containing Z-Phe-Arg-AMC (Bachem, K M = 1 µM) was added to enzyme inhibitor to give 20 µM substrate concentration in 200 µL, and the increase in fluorescence (excitation at 355 nm and emission at 460 nm) was followed with an automated microtiter plate spectrofluorometer (Molecular Devices, Flex station). Inhibitor stock solutions were prepared at 20 mM in DMSO, and serial dilutions were made in DMSO (0.7% DMSO in assay). Controls were performed using enzyme alone and enzyme with DMSO. IC50 values were determined graphically using inhibitor concentrations in the linear portion of a plot of inhibition versus log[I] (seven concentrations tested with at least two in the linear range).
(§2) Inhibitor dilutions which produce simple exponential progress curves over a wide range of k obs, were used to determine kinetic parameters. The value of k obs, the rate constant for loss of enzyme activity, was determined from an equation for pseudo first order dynamics using Prism 4.0 (GraphPad). When k obs varied linearly with inhibitor concentration, k ass was determined by linear regression analysis. If the variation was hyperbolic, indicating saturation inhibition kinetics, k inact and K i were determined from an equation describing a two-step irreversible inhibitor mechanism [k obs = k inact [I]o/([I]o+Ki* (1+[S]o/K M))] and non-linear regression analysis Prism 4.0.[32] All values were corrected for substrate concentration.

Cathepsin S = target: T2, Cathepsin S (Homo sapiens, UniProt P25774); test: Protease inhibition profiling (Reaction Biology Corp): Cathepsin S; assay type: biochemical
T2 construct: Reaction Biology Corp (screening service)

[2] = test system: T. cruzi CA-I/72 infected C3H mice; test: Murine model of acute Chagas' disease; assay type: in vivo, mouse; parameters: key to Histopathology, Heart / Histopathology, Liver / Histopathology, Spleen / Histopathology, Colon: I/I: Inflammation and infiltration; +10A: Numerous nests of T. cruzi amastigotes; +A: 1-3 nests of T. cruzi amastigotes; Negative
Description: Three to four week old female C3H mice weighing ca. 20 g were used. The animals were separated into five lots of 5 mice per cage and infected with 10^6 tissue-culture derived trypomastigotes of the myotropic T. cruzi CA-I/72 cloned stock. The mice were treated with 100 mg compound/kg of body weight in 100 µL of solution (30–40% DMSO: 60–70% sterile distilled water) intraperitoneally twice a day. Treatment was initiated 12 h post infection and continued until cure, death of the animals, or for a total of 20 days. […] Parasitemias was determined at the end of the experiment when animals were euthanized. Tissues processed for histopathology include skeletal muscle, heart, liver, spleen, and colon. Blood (5–50 µL) was used for hemocultures. […] Compounds were considered toxic if life expectancy is lower than untreated controls (negative values). If necessary, PCR of blood and tissues was performed to confirm effectiveness of treatment and/or cure of treated animals. Results were expressed as survival (days) of treated animals.

Cathepsin V = target: T3, Cathepsin V (Homo sapiens, UniProt O60911); test: Protease inhibition profiling (Reaction Biology Corp): Cathepsin V; assay type: biochemical
T3 construct: Reaction Biology Corp (screening service)

Cathepsin K = target: T4, Cathepsin K (Homo sapiens, UniProt P43235); test: Protease inhibition profiling (Reaction Biology Corp): Cathepsin K; assay type: biochemical
T4 construct: Reaction Biology Corp (screening service)
T4 sequence (P43235 115-329): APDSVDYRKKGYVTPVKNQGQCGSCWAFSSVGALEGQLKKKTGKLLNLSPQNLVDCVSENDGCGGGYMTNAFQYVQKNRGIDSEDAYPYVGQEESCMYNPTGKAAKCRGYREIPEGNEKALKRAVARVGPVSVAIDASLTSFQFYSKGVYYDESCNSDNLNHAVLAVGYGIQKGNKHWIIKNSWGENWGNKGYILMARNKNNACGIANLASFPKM

Papain = target: T5, Papain (Carica papaya, UniProt P00784); test: Protease inhibition profiling (Reaction Biology Corp): Papain; assay type: biochemical
T5 construct: Reaction Biology Corp (screening service)
T5 sequence (P00784 134-345): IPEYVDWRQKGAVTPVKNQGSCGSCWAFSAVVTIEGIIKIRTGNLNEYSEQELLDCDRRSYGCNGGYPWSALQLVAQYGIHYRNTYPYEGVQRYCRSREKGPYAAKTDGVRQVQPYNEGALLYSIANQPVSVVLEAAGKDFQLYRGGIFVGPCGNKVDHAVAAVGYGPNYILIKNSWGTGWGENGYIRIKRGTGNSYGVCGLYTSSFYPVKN

Rhodesain = target: T6, Rhodesain (Trypanosoma brucei rhodesiense, UniProt Q95PM0); test: Rhodesain enzyme assay (acetate buffer pH 5.5, Z-Phe-Arg-AMC); assay type: biochemical, T. brucei; settings: 100 mM sodium acetate pH 5.5, 5 mM DTT
T6 construct: made in house
Description: as §1, §2

Cruzain = target: T7, Cruzain (Trypanosoma cruzi, UniProt P25779); test: Cruzain enzyme assay (acetate buffer pH 5.5, Z-Phe-Arg-AMC); assay type: biochemical; settings: 100 mM sodium acetate pH 5.5, 5 mM DTT
T7 construct: made in house
Description: as §1, with “(seven concentrations tested with at least two in the linear range).” left out
Inhibitor dilutions which produce simple exponential progress curves over a wide range of k obs, were used to determine kinetic parameters. The value of k obs, the rate constant for loss of enzyme activity, was determined from an equation for pseudo first order dynamics using Prism 4.0 (GraphPad). When k obs varied linearly with inhibitor concentration, k ass was determined by linear regression analysis. […]

[3] = test system: T. cruzi infected J774 macrophages; test: T. cruzi growth inhibition in infected J774 macrophages (cell survival); assay type: cell-based, Trypanosoma cruzi CA-I/72; settings: 10 µM inhibitor every 48 h until Day 27, experiment terminated on Day 47, untreated control 6 days
Description: CA-I/72 T. cruzi parasites were isolated from a chronic Chagasic patient, cloned, and maintained as previously described.[33]
For growth inhibition studies, J774 macrophages cultured in RPMI-1640 medium with 5% heat inactivated fetal calf serum (FCS) were irradiated (9000 rad) to arrest the cell cycle and plated onto 12-well tissue culture plates for 24 h at 37°C. After infection with 10^5 T. cruzi trypomastigotes per well for 2 hours, monolayers were washed with RPMI medium and treated with the inhibitors at 10 µM in RPMI medium (triplicate wells per inhibitor). Inhibitor stocks were made to 10 mM in DMSO and diluted prior to use. All assays include untreated, K11777-treated, and uninfected macrophage controls. Fresh medium with or without inhibitor was replaced every 48 h and inhibitor efficacy was monitored daily. Survival time was defined as the time before the cell monolayer was destroyed by the infection. Under these culture conditions, T. cruzi completed the intracellular cycle in 6 days in untreated controls. […] Macrophages were subsequently cultured in normal medium for up to 40 days to elucidate if the effective inhibitors were trypanocidal (cure host macrophages) or trypanostatic (delay intracellular cycle of the parasite).

Cathepsin C = target: T8, Cathepsin C (Homo sapiens, UniProt P53634); test: Protease inhibition profiling (Reaction Biology Corp): Cathepsin C; assay type: biochemical
T8 construct: Reaction Biology Corp (screening service)

[4] = individual infected mice, 100 mg/kg ip
[5] = individual infected mice, 100 mg/kg ip, 100 mg/kg

T6 sequence (Q95PM0 entry or part of it): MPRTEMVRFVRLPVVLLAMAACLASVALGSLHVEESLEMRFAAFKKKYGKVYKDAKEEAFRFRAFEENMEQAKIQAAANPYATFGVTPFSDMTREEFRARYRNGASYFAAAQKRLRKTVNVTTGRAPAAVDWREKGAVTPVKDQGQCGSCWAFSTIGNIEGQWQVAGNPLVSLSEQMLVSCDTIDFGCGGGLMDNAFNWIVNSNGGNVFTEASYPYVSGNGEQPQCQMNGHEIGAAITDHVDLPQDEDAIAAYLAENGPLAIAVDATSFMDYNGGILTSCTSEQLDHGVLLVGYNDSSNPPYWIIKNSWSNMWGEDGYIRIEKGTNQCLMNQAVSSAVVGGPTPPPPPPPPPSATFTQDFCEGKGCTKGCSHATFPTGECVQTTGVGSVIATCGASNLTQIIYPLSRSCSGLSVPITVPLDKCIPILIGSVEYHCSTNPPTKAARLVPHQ
T3 sequence (O60911 114-334, species assumed): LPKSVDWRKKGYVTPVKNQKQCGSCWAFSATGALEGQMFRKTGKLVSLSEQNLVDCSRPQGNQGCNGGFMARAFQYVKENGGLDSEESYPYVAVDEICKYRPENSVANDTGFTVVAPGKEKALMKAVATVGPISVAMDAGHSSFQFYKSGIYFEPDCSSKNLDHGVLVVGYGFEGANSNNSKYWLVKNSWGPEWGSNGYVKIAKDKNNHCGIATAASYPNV
T7 sequence (P25779 123-337 limits assumed): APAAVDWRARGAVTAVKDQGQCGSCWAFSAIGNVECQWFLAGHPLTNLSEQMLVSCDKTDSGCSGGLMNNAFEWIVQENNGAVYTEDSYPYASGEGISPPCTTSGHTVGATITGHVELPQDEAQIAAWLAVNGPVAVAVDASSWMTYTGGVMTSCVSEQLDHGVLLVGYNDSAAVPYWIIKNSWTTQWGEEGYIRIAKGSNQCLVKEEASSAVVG
T8 sequence (P53634 25-463, species assumed): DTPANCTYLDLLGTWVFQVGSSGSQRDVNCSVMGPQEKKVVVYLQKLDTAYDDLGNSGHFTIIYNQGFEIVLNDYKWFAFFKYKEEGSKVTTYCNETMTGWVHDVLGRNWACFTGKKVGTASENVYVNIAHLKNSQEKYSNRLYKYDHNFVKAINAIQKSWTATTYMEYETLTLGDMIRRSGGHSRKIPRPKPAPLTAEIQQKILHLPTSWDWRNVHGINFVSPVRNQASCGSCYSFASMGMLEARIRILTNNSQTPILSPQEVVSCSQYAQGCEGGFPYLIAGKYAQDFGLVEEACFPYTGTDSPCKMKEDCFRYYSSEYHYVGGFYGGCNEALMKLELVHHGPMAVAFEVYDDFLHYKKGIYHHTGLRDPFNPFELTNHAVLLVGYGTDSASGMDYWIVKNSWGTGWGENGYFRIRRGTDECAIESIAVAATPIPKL
T2 sequence (P25774 115-331, species assumed): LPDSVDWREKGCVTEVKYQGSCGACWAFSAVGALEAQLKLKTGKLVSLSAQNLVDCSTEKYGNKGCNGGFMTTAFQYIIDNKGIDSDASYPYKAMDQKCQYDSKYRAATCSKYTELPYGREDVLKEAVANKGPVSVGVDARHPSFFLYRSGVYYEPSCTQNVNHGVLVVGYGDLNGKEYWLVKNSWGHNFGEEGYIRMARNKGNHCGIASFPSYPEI

Compound	EC50 [1] [nM]	inhibition of tbcatB (in words) (tbcatB)	tbcatB k ass (tbcatB) [M⁻¹ s⁻¹]	inhibition at 1 µM (tbcatB; read-out: tbcatB % inhibition at 1 µM) [%]	IC50 (Cathepsin S) [nM]	T. cruzi infected mouse survival ([2]; 100 mg inhibitor/kg body weight in two daily doses, intraperitoneally, untreated control 21 days) [days]	survival of the acute infection ([2]; 10^6 trypomastigotes CA-I/72, untreated controls died within 21–60 days)	Histopathology, Colon [2, 4]	Histopathology, Liver [2, 4]	Histopathology, Spleen [2, 4]	Histopathology, Heart [2, 5]	Histopathology, Sk. muscle [2, 5]	IC50 (Cathepsin V) [nM]	IC50 (Cathepsin K) [nM]	IC50 (Papain) [nM]	k obs/[I] at 1 µM, Rhodesain (Rhodesain)	k obs/[I] at 1 µM, Cruzain (Cruzain)	T. cruzi infected cell survival [3] [days]	IC50 (Cathepsin C) [nM]
CC[C@@H]([C@H](C)O)n1ncn(-c2ccc(N3CCN(c4ccc(OC[C@@H]5CO[C@@](Cn6cncn6)(c6ccc(F)cc6F)C5)cc4)CC3)cc2)c1=O [posaconazole]	200	–	–	–	–	–	–	–	–	–	–	–	–	–	–	–	–	–	–
CN1CCN(C(=O)N[C@@H](Cc2ccccc2)C(=O)N[C@H](/C=C/S(=O)(=O)c2ccccc2)CCc2ccccc2)CC1 [K11777]	4200	weak inhibitors	500 ± 100	48	0.6	110	survived the acute infection	N	N	N	Mild i/i and N	+AIntense i/i; also recorded: Moderate i/i; also recorded: +AModerate i/i; also recorded: Intense i/i	1.2	25	0.4	48,000±10,200 s^-1 M^-1	108,000±4,200 s^-1 M^-1	47	0.4
